Assay [1] addresses T1, Full-length human PRMT8 (Homo sapiens, UniProt Q9NR22).
T1 construct: Full-length human PRMT8 (NM_019854.4) isoform 1 transcript clone; made in house
In words: PRMT8 biochemical assay (3H-SAM Flashplate, peptide substrate). The method in brief: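 Methylation of a biotinylated H4 (31-45) peptide by ³H-SAM was counted after streptavidin Flashplate capture. Purified recombinant PRMT8 and compound were preincubated 30 min at room temperature in Bicine buffer pH 7.6 with TCEP, BSG and Tween 20, and reactions were stopped with unlabeled SAM (final 400 μM). Inhibition versus DMSO and SAH controls was fit by 3- or 4-parameter curves.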

The subject of assay [2] is mono-methyl arginine in RKO cells. In words: RKO methylation assay, In Cell Western for mono-methyl arginine and DNA content. Type of assay: cell-based. To be noted: Homo sapiens.
The mark [3] stands for this setting: In Cell Western, RKO cells, 72 hours, percent activation of mono-methyl arginine signal, read-out: EC30.

Like-named read-outs stand apart in the source and are kept apart here. Where only a bound is given, the exact number is not on record here.

T1 sequence (Q9NR22 whole entry, canonical isoform): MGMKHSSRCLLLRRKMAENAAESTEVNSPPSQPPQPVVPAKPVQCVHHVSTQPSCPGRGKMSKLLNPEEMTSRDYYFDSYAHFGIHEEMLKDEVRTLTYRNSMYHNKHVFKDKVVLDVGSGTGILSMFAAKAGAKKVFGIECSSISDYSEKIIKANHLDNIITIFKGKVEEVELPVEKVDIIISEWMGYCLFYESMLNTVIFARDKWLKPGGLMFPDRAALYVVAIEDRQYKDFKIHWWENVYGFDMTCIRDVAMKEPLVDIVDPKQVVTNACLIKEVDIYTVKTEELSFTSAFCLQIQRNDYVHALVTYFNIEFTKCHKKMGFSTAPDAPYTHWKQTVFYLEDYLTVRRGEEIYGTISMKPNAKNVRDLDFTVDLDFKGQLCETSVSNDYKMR

On to `CC(C)CN1C(=O)COc2ccc(-c3n[nH]cc3CN(C)CCN)cc21` [Compound 191], for which the IC50 in assay [1] lay in the range of 3010 to 10000 nM. For the same compound, the 30% effect concentration (EC30) in assay [2] (setting [3]) is more than 12 µM.
Take `CN(CCN)Cc1c[nH]nc1-c1ccc2c(c1)OCC(=O)N2C` [Compound 192]: the IC50 in assay [1] was in the range of 1010 to 3000 nM. Also, the 30% effect concentration (EC30) in assay [2] (setting [3]) is more than 12 µM.
The compound `CC(C)CN1C(=O)COc2cc(-c3n[nH]cc3CN(C)CCN)ccc21` [Compound 193] came in with an IC50 in assay [1] of 101 to 1000 nM. In addition, the EC30 in assay [2] (setting [3]) lay within 3.01 to 12 µM.
`CN(CCN)Cc1c[nH]nc1-c1ccc(OCCO)cc1` [Compound 194] gave an IC50 in assay [1] of 101 to 1000 nM. In assay [2] (setting [3]), the EC30 was more than 12 µM.
Taken in the same sequence, the figures for `CN(CCN)Cc1c[nH]nc1-c1ccc(OCCCO)cc1` [Compound 195] were 101 to 1000 nM and 3.01 to 12 µM.
In assay [1], `CN(CCN)Cc1c[nH]nc1-c1ccc2c(c1)N(C)C(=O)CO2` [Compound 196] returned an IC50 of 1010 to 3000 nM. In assay [2] (setting [3]), the EC30 was more than 12 µM.
Taken in the same sequence, the figures for `CCNC(=O)c1cccc(-c2n[nH]cc2CN(C)CCN)c1` [Compound 197] were 1010 to 3000 nM and more than 12 µM.
Taken in the same sequence, the figures for `CCN(C)C(=O)c1cccc(-c2n[nH]cc2CN(C)CCN)c1` [Compound 198] were more than 10000 nM and more than 12 µM.
For `Cc1cc(-c2n[nH]cc2CN(C)CCN)cc(C)c1OC(C)C` [Compound 199, N^1-((3-(4-isopropoxy-3,5-dimethylphenyl)-1H-pyrazol-4-yl)methyl)-N^1-methylethane-1,2-diamine], the IC50 in assay [1] lay in the range of 101 to 1000 nM. In addition, the EC30 in assay [2] (setting [3]) is less than 3 µM.
In turn, `CN(CCN)Cc1c[nH]nc1-c1ccc(Oc2ccccc2)c(C#N)c1` [Compound 202] showed an IC50 in assay [1] of 101 to 1000 nM. Also, the EC30 in assay [2] (setting [3]) was less than 3 µM.
On to `CN(CCN)Cc1n[nH]cc1-c1ccc(Oc2ccccc2)cc1` [Compound 203], for which the IC50 in assay [1] fell in the range of 101 to 1000 nM. For the same compound, the 30% effect concentration (EC30) in assay [2] (setting [3]) is less than 3 µM.
The like results for `CNCCN(C)Cc1n[nH]cc1-c1ccc(Oc2ccccc2)cc1` [Compound 204] were, in that order, less than 100 nM and less than 3 µM.
Compound `CN(CCN)Cc1c[nH]nc1-c1ccc(Oc2cccc(F)c2)cc1` [Compound 205] came in with an IC50 in assay [1] of 101 to 1000 nM. Further, the EC30 in assay [2] (setting [3]) is less than 3 µM.
Compound `CNCCN(C)Cc1cn(C)nc1-c1ccc(OC(C)C)c(Cl)c1` [Compound 206] yielded an IC50 in assay [1] of 101 to 1000 nM. Besides, in assay [2] (RKO, 72 h), the EC30 was less than 3 µM.
On to `CNCCN(C)Cc1cn(C)nc1-c1ccc(Oc2ccccc2)cc1` [Compound 207], for which the concentration for half-maximal inhibition (IC50) in assay [1] was 101 to 1000 nM. Also, the EC30 in assay [2] (setting [3]) was less than 3 µM.
Taken in the same sequence, the figures for `CNCCN(C)Cc1cnn(C)c1-c1ccc(Oc2ccccc2)cc1` [Compound 208] were 101 to 1000 nM and less than 3 µM.
The like results for `CNCCN(C)Cc1c[nH]nc1-c1ccc(OCCCOC)cc1` [Compound 209] were, in that order, 101 to 1000 nM and less than 3 µM.
The like results for `CNCCN(C)Cc1n[nH]cc1-c1ccc(OC(C)C)c(F)c1` [Compound 210] were, in that order, 101 to 1000 nM and less than 3 µM.
Regarding `CC(C)Oc1ccc(-c2c[nH]nc2CN(C)CCN)cc1Cl` [Compound 211], the IC50 in assay [1] lay within 101 to 1000 nM. Besides, the EC30 in assay [2] (setting [3]) is less than 3 µM.
The like results for `CNCCN(C)Cc1n[nH]cc1-c1ccc(OC(C)C)c(Cl)c1` [Compound 212] were, in that order, less than 100 nM and less than 3 µM.
Taken in the same sequence, the figures for `CNCCN(C)Cc1c[nH]nc1-c1ccc(Oc2ccccc2)c(C#N)c1` [Compound 221] were 101 to 1000 nM and less than 3 µM.
The compound `CN(CCN)Cc1c(-c2ccc(C#N)cc2)ncn1C` [Compound 222] yielded a half-inhibitory concentration (IC50) in assay [1] of 3010 to 10000 nM. The EC30 in assay [2] (setting [3]) is more than 12 µM.
`CN(CCN)Cc1c[nH]nc1-c1ccc(Oc2ccccc2)c(F)c1` [Compound 224, N^1-((3-(3-fluoro-4-phenoxyphenyl)-1H-pyrazol-4-yl)methyl)-N^1-methylethane-1,2-diamine]: the IC50 in assay [1] is 101 to 1000 nM. In assay [2] (RKO, 72 h), this compound returned an EC30 of less than 3 µM.

One may read the IC50 as the concentration needed to halve the response being measured. Higher therefore signals weaker potency in that assay. What is called EC30 is the concentration at which the effect reaches the 30% level.
